# Measured values: patent EP2970215B1, “PYRROLIDINE DERIVATIVES, PHARMACEUTICAL COMPOSITIONS CONTAINING THEM, AND THEIR USE IN THERAPY” (AbbVie Deutschland GmbH & Co. KG, priority 2013, dated 2014)
# Molecular target: T1, human GlyT1c transporter (Homo sapiens, UniProt P48067)
# T1 construct: expressed in transfected cells; host or cells: CHO cells (recombinant; line hGlyT1c_5_CHO is named for the uptake assay)
# T1 sequence (P48067 1-706): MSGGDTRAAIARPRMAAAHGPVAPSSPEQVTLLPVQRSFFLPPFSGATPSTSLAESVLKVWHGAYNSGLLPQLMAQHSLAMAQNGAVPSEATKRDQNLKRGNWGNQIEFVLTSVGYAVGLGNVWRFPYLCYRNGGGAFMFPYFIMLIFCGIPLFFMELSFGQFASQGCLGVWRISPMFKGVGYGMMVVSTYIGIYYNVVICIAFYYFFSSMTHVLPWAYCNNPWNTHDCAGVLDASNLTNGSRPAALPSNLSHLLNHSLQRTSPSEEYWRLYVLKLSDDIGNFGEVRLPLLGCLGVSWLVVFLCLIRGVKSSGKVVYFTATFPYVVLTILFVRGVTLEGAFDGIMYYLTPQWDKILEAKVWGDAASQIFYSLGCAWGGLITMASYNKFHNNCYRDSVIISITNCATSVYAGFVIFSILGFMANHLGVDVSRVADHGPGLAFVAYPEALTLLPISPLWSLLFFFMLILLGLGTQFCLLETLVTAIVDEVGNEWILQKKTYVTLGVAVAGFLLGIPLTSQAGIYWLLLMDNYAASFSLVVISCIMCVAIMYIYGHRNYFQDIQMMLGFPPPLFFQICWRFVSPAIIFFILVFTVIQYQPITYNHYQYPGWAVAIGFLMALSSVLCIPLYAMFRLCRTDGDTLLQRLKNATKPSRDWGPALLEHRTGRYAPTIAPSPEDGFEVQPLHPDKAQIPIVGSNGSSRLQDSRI
# Test: Radioligand binding assay using recombinant CHO cell membranes expressing human GlyT1
# Source text: 2. Radioligand binding assays using recombinant CHO cell membranes expressing human GlyT1: […]
# [1] = radioligand binding to human GlyT1c transporter-expressing membranes
# [2] = radioligand binding, recombinant CHO cell membranes expressing human GlyT1c
Ki [1],Ki [2],Structure (SMILES)
≤ 1000 nM,–,Cn1cnc(S(=O)(=O)N2C[C@H](Nc3ccc(Cl)c(C(F)(F)F)c3)[C@@H](c3cocn3)C2)c1 [Example 753]
≥ 10000 nM,–,"Cc1nc(S(=O)(=O)N2C[C@H](Nc3ccc(F)c(F)c3)[C@@H](c3ccc(F)cc3)C2)cn1C [Example 755, (3R,4S)-N-(3,4-difluorophenyl)-1-[(1,2-dimethyl-1H-imidazol-4-yl)sulfonyl]-4-(4-fluorophenyl)pyrrolidin-3-amine]"
≤ 10000 nM,–,"Cc1nc(S(=O)(=O)N2C[C@H](Nc3ccc(F)c(C(F)(F)F)c3)[C@@H](c3ccc(F)cc3)C2)cn1C [Example 756, (3R,4S)-1-[(1,2-dimethyl-1H-imidazol-4-yl)sulfonyl]-4-(4-fluorophenyl)-N-[4-fluoro-3-(trifluoromethyl)phenyl]pyrrolidin-3-amine]"
≤ 10000 nM,–,"Cc1ncc(S(=O)(=O)N2C[C@H](Nc3ccc(F)c(C(F)(F)F)c3)[C@@H](c3ccc(F)cc3)C2)n1C [Example 758, (3R,4S)-1-[(1,2-dimethyl-1H-imidazol-5-yl)sulfonyl]-4-(4-fluorophenyl)-N-[4-fluoro-3-(trifluoromethyl)phenyl]pyrrolidin-3-amine]"
> 10000 nM,–,"Cc1nc(S(=O)(=O)N2C[C@H](Nc3cc(C(F)(F)F)c(Cl)cn3)[C@@H](c3ccc(F)cc3)C2)cn1C [Example 760, 5-chloro-N-[(3R,4S)-1-[(1,2-dimethyl-1H-imidazol-4-yl)sulfonyl]-4-(4-fluorophenyl)pyrrolidin-3-yl]-4-(trifluoromethyl)pyridin-2-amine]"
≤ 100 nM,–,"Cn1cnc(S(=O)(=O)N2C[C@H](Nc3cccc(OCc4ccccc4)c3)[C@@H](c3ccccc3)C2)c1 [Example 773, (3R,4S)-N-[3-(benzyloxy)phenyl]-1-[(1-methyl-1H-imidazol-4-yl)sulfonyl]-4-phenylpyrrolidin-3-amine]"
≤ 100 nM,–,"Cn1cnc(S(=O)(=O)N2C[C@H](Nc3cc(OCc4ccccc4)ncn3)[C@@H](c3ccc(F)cc3)C2)c1 [Example 774, 6-(benzyloxy)-N-{(3R,4S)-4-(4-fluorophenyl)-1-[(1-methyl-1H-imidazol-4-yl)sulfonyl]pyrrolidin-3-yl}pyrimidin-4-amine]"
≤ 10 nM,–,"Cn1cnc(S(=O)(=O)N2C[C@H](Nc3cc(OCc4ccccc4)c(F)cn3)[C@@H](c3ccccc3)C2)c1 [Example 776, 4-(benzyloxy)-5-fluoro-N-{(3R,4S)-1-[(1-methyl-1H-imidazol-4-yl)sulfonyl]-4-phenylpyrrolidin-3-yl}pyridin-2-amine]"
≤ 10000 nM,–,"Cn1cnc(S(=O)(=O)N2C[C@H](Nc3cc(OCC4CCNC4)ncn3)[C@@H](c3ccc(F)cc3)C2)c1 (stereo partly drawn) [Example 779, N-{(3R,4S)-4-(4-fluorophenyl)-1-[(1-methyl-1H-imidazol-4-yl)sulfonyl]pyrrolidin-3-yl}-6-(pyrrolidin-3-ylmethoxy)pyrimidin-4-amine]"
≤ 10000 nM,–,"Cn1cnc(S(=O)(=O)N2C[C@H](Nc3cc(OCC4CCCN4)ncn3)[C@@H](c3ccc(F)cc3)C2)c1 (stereo partly drawn) [Example 780, N-{(3R,4S)-4-(4-fluorophenyl)-1-[(1-methyl-1H-imidazol-4-yl)sulfonyl]pyrrolidin-3-yl}-6-(pyrrolidin-2-ylmethoxy)pyrimidin-4-amine]"
≤ 100 nM,–,"Cn1cnc(S(=O)(=O)N2C[C@H](Nc3nccc(C(F)(F)F)c3F)[C@@H](c3ccc(F)cc3)C2)c1 [Example 796, 3-fluoro-N-{(3R,4S)-4-(4-fluorophenyl)-1-[(1-methyl-1H-imidazol-4-yl)sulfonyl]pyrrolidin-3-yl}-4-(trifluoromethyl)pyridin-2-amine]"
≤ 10000 nM,–,"Cn1cnc(S(=O)(=O)N2C[C@H](OCC(=O)NCC(F)F)[C@@H](c3ccc(F)cc3)C2)c1 [Example 797, N-(2,2-difluoroethyl)-2-({(3R,4S)-4-(4-fluorophenyl)-1-[(1-methyl-1H-imidazol-4-yl)sulfonyl]pyrrolidin-3-yl}oxy)acetamide]"
≤ 10 nM,–,"Cn1cnc(S(=O)(=O)N2C[C@H](Nc3cccc(-c4ccccn4)c3)[C@@H](c3ccc(F)cc3)C2)c1 [Example 801, (3R,4S)-4-(4-fluorophenyl)-1-[(1-methyl-1H-imidazol-4-yl)sulfonyl]-N-[3-(pyridin-2-yl)phenyl]pyrrolidin-3-amine]"
≤ 100 nM,–,"Cn1cnc(S(=O)(=O)N2C[C@H](Nc3cccc(-c4ccccn4)c3)[C@@H](c3ccccc3)C2)c1 [Example 802, (3R,4S)-1-[(1-methyl-1H-imidazol-4-yl)sulfonyl]-4-phenyl-N-[3-(pyridin-2-yl)phenyl]pyrrolidin-3-amine]"
≤ 10 nM,–,"Cn1cnc(S(=O)(=O)N2C[C@H](Nc3cc(OCC(F)(F)F)c(F)cn3)[C@@H](c3ccccc3)C2)c1 [Example 803, 5-fluoro-N-{(3R,4S)-1-[(1-methyl-1H-imidazol-4-yl)sulfonyl]-4-phenylpyrrolidin-3-yl}-4-(2,2,2-trifluoroethoxy)pyridin-2-amine]"
≤ 10 nM,–,"Cn1cnc(S(=O)(=O)N2C[C@H](Nc3cc(OCC(F)(F)F)c(Cl)cn3)[C@@H](c3ccc(F)cc3)C2)c1 [Example 806, 5-chloro-N-{(3R,4S)-4-(4-fluorophenyl)-1-[(1-methyl-1H-imidazol-4-yl)sulfonyl]pyrrolidin-3-yl}-4-(2,2,2-trifluoroethoxy)pyridin-2-amine]"
≤ 10 nM,–,"Cn1cnc(S(=O)(=O)N2C[C@H](Nc3cc(OCC(F)(F)F)ccn3)[C@@H](c3ccc(F)cc3)C2)c1 [Example 807, N-{(3R,4S)-4-(4-fluorophenyl)-1-[(1-methyl-1H-imidazol-4-yl)sulfonyl]pyrrolidin-3-yl}-4-(2,2,2-trifluoroethoxy)pyridin-2-amine]"
≤ 10 nM,–,"Cn1cnc(S(=O)(=O)N2C[C@H](Nc3cc(OCC(F)(F)F)c(F)cn3)[C@@H](c3ccc(F)cc3)C2)c1 [Example 810, 5-fluoro-N-{(3R,4S)-4-(4-fluorophenyl)-1-[(1-methyl-1H-imidazol-4-yl)sulfonyl]pyrrolidin-3-yl}-4-(2,2,2-trifluoroethoxy)pyridin-2-amine]"
–,≤ 100 nM,"CC(C)c1ccnc(N[C@H]2CN(S(=O)(=O)c3cn(C)cn3)C[C@@H]2c2ccccc2)c1 [Example 813, N-{(3R,4S)-1-[(1-methyl-1H-imidazol-4-yl)sulfonyl]-4-phenylpyrrolidin-3-yl}-4-(propan-2-yl)pyridin-2-amine]"
–,≤ 1000 nM,"Cn1cnc(S(=O)(=O)N2CC(Cc3cc(C(F)(F)F)ccn3)C(c3ccccc3)C2)c1 (stereo not shown) [Example 817, 2-({1-[(1-methyl-1H-imidazol-4-yl)sulfonyl]-4-phenylpyrrolidin-3-yl}methyl)-4-(trifluoromethyl)pyridine]"
–,≤ 10000 nM,"CCCCCCNC1CN(S(=O)(=O)c2cn(C)cn2)CC1[C@H]1CCCO1 (stereo partly drawn) [Example 820, N-Hexyl-1-[(1-methyl-1H-imidazol-4-yl)sulfonyl]-4-[(2R)-tetrahydrofuran-2-yl]pyrrolidin-3-amine]"
–,≤ 10000 nM,"CCCCCCNC1CN(S(=O)(=O)c2cn(C)cn2)CC1[C@@H]1CCCO1 (stereo partly drawn) [Example 821, N-hexyl-1-[(1-methyl-1H-imidazol-4-yl)sulfonyl]-4-[(2S)-tetrahydrofuran-2-yl]pyrrolidin-3-amine]"
–,≤ 1000 nM,"Cn1cnc(S(=O)(=O)N2CC(Nc3ccc(F)c(Cl)c3)C([C@@H]3CCCO3)C2)c1 (stereo partly drawn) [Example 825, N-(3-chloro-4-fluorophenyl)-1-[(1-methyl-1H-imidazol-4-yl)sulfonyl]-4-[(2S)-tetrahydrofuran-2-yl]pyrrolidin-3-amine]"
–,≤ 10000 nM,"Cn1cnc(S(=O)(=O)N2C[C@H](Nc3ccc4c(c3)N(Cc3ccccc3)CC4)[C@@H](c3ccccc3)C2)c1 [Example 826, 1-benzyl-N-{(3R,4S)-1-[(1-methyl-1H-imidazol-4-yl)sulfonyl]-4-phenylpyrrolidin-3-yl}-2,3-dihydro-1H-indol-6-amine]"
–,≤ 10 nM,"Cn1cc(S(=O)(=O)N2C[C@H](Nc3cccc(OC(F)(F)F)c3)[C@@H](c3ccc(F)cc3)C2)nn1 [Example 837, (3R,4S)-4-(4-fluorophenyl)-1-[(1-methyl-1H-1,2,3-triazol-4-yl)sulfonyl]-N-[3-(trifluoromethoxy)phenyl]pyrrolidin-3-amine]"
–,≤ 10 nM,"Cn1cc(S(=O)(=O)N2C[C@H](Nc3cccc(C(F)(F)F)c3)[C@@H](c3ccc(F)cc3)C2)nn1 [Example 839, (3R,4S)-4-(4-fluorophenyl)-1-[(1-methyl-1H-1,2,3-triazol-4-yl)sulfonyl]-N-[3-(trifluoromethyl)phenyl]pyrrolidin-3-amine]"
–,≤ 10 nM,"Cn1cc(S(=O)(=O)N2C[C@H](Nc3ccc(F)c(Cl)c3)[C@@H](c3ccc(F)cc3)C2)nn1 [Example 842, (3R,4S)-N-(3-chloro-4-fluorophenyl)-4-(4-fluorophenyl)-1-[(1-methyl-1H-1,2,3-triazol-4-yl)sulfonyl]pyrrolidin-3-amine]"
–,≤ 10 nM,"Cn1cnc(S(=O)(=O)N2C[C@H](Nc3cc(C(F)(F)F)c(F)cn3)[C@@H](c3ccc(F)cc3)C2)c1 [Example 865, 5-fluoro-N-{(3R,4S)-4-(4-fluorophenyl)-1-[(1-methyl-1H-imidazol-4-yl)sulfonyl]pyrrolidin-3-yl}-4-(trifluoromethyl)pyridin-2-amine]"
